The source of these data is ChEMBL document CHEMBL5029190, “A Series of Pyrazole Analogs Binding to KRASG12C as Potential Cancer Treatment” (ACS Med Chem Lett, 2022).

This test addresses GTPase KRas (Homo sapiens, UniProt P01116, G12C). The test is described as follows: Inhibition of human KRAS G12C mutant incubated for 2 hrs by scintillation counter based covalent competition assay.

With `C=CC(=O)N1CC2(CC(n3nc(-c4ccc5c(c4)CCN5C(=O)CN4CC[C@H](F)C4)c(-c4c(Cl)c(C)cc5[nH]ncc45)c3C)C2)C1` (stereo in doubt; 76b), the IC50 came to 13.3 µM.

`C=CC(=O)N1CC2(CC(n3nc(-c4ccc5c(c4)CCN5C(=O)CN4CC[C@H](F)C4)c(-c4c(Cl)c(C)cc5[nH]ncc45)c3C)C2)C1` (stereo in doubt; 76a) gave an IC50 of 0.015 µM.
